From patent publication US10344026B2, “Compositions and methods of targeting mutant K-ras” (NANTBIO, INC., priority 2017, dated 2019)

Legend:
Format in all cases: cell-based
[1] = tested on: HCT116-G31D; assay: Viability assay (CellTiterBlue, 72 hr) HCT116; settings: Homo sapiens, HCT-116, GI50, CellTiterBlue, HCT116 K-Ras G13D, read-out: 72 hr Cell Viability HCT116 (G13D)
In short: (§1)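 1000 cells/well, 18 hr pre-incubation at 37 °C; compound added from DMSO stock, 0.5% DMSO final; 72 hr; CellTiterBlue 3 hr, fluorescence Ex550/Em590; GI50 normalized to DMSO = 100%, 100 uM tamoxifen = 0% viability.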

[2] = tested on: phospho-Akt in HCC827 (Wild-type); assay: In-Cell Western phospho-Akt, HCC827; settings: Homo sapiens, 1 h; HCC827, one hour treatment; read-out: In-Cell Western HCC827 (Wild-type) Akt (P)
Experimental: In-cell phosphorylation assays for Erk and Akt were performed on several of the compounds and exemplary results are shown in Table 3 below using HCC827 and A375 cell lines for wild type K-Ras and Panc1 and Panc10.05 cell lines for G12D K-Ras mutants. Results are expressed in μM and corresponding structures are shown in FIGS. 2A-2G and Examples 1-152, above.
Cells are seeded in complete medium into black sided, clear-bottom 384-well microplates at 3000 cells/[…]/well. Plates are returned to 37° C. CO2 incubator for 18 hr. Drug is made as 200× in DMSO and diluted into medium to 10×. To each well is added 4 ul 10× test article or controls, and plates are returned to the incubator. Final assay DMSO concentration is 0.5%. After one hour, cells are fixed in formaldehyde, rinsed & permeabilized with triton X-100, and blocked with BSA/Goat serum blocking solution. Primary phospho-Akt and phospho-ERK antibodies are added and plates are incubated overnight at 4° C. Plates are rinsed with Tween-20 wash buffer and secondary antibody (Goat anti-rabbit, Thermofisher) is added. After 2 hours, plates are rinsed in Tween-20 wash buffer, and then PBS. Plates are imaged on the Celigo (Nexcelom) and cellular fluorescence is quantitated. Full inhibition of phospho-Akt is achieved with 1 uM BEZ235 (Sellekchem), while full inhibition of phospho-ERK is achieved with 1 uM MEK Inhibitor II Calbiochem). EC50 values are calculated using Graphpad Prism.

[3] = tested on: phospho-Akt in Panc10.05 (G12D); assay: In-Cell Western phospho-Akt, Panc10.05; settings: Homo sapiens, Panc1005, 1 h; Panc10.05, one hour treatment; read-out: In-Cell Western Panc10.05 (G12D) Akt (P)
In short: (§2)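 Following an 18 hr settle at 37° C, seeded cells receive test compound for 1 hr before fixation and staining with phospho-Akt and phospho-ERK primary antibodies (overnight, 4° C) plus a goat anti-rabbit secondary. Plates are imaged and fluorescence quantitated to give EC50.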

[4] = tested on: phospho-ERK in Panc1 (G12D); assay: In-Cell Western phospho-ERK, Panc1; settings: Homo sapiens, PANC-1, 1 h; Panc1, one hour treatment; read-out: In-Cell Western Panc1 (G12D) Erk (P)
In short: as §2

[5] = tested on: phospho-ERK in HCC827 (Wild-type); assay: In-Cell Western phospho-ERK, HCC827; settings: Homo sapiens, 1 h; HCC827, one hour treatment; read-out: In-Cell Western HCC827 (Wild-type) Erk (P)
In short: as §2

[6] = tested on: Ishikawa (K-Ras wild type cell line); assay: Viability assay (CellTiterBlue, 72 hr) Ishikawa; settings: Homo sapiens, GI50, CellTiterBlue, Ishikawa K-Ras wild-type
In short: as §1

[7] = tested on: phospho-ERK in Panc10.05 (G12D); assay: In-Cell Western phospho-ERK, Panc10.05; settings: Homo sapiens, Panc1005, 1 h; Panc10.05, one hour treatment; read-out: In-Cell Western Panc10.05 (G12D) Erk (P)
In short: as §2

[8] = tested on: Panc10.05-G12D; assay: Viability assay (CellTiterBlue, 72 hr) Panc10.05; settings: Homo sapiens, Panc1005, GI50, CellTiterBlue, Panc10.05 K-Ras G12D, read-out: 72 hr Cell Viability Panc10.05 (G12D)
In short: as §1

[9] = target: T1, K-Ras G12D (Homo sapiens, UniProt P01116, G12D); assay: G-LISA Ras activation, 293H cells transfected with G12D mutant; settings: compound 1 hour
T1 construct: expressed in transfected cells; host or cells: 293H cells
In short: (§3)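 Active Ras was quantified by G-LISA in lysates of 293H cells transiently expressing wild-type or mutant Ras. Compounds (3.125-25 μM) were applied for 1 hour; only wild-type transfected cells were stimulated with 100 ng/ml EGF for 2 minutes.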

[10] = tested on: phospho-Akt in Panc1 (G12D); assay: In-Cell Western phospho-Akt, Panc1; settings: Homo sapiens, PANC-1, 1 h; Panc1, one hour treatment; read-out: In-Cell Western Panc1 (G12D) Akt (P)
In short: as §2

[11] = target: T2, wild type K-Ras (Homo sapiens, UniProt P01116); assay: G-LISA Ras activation, 293H cells transfected with Ras wild-type, EGF stimulated; settings: compound 1 hour, then 100 ng/ml EGF 2 minutes
T2 construct: expressed in transfected cells; host or cells: 293H cells
In short: as §3

[12] = tested on: HCC827 (K-Ras wild type cell line); assay: Viability assay (CellTiterBlue, 72 hr) HCC827; settings: Homo sapiens, GI50, CellTiterBlue, HCC827 K-Ras wild-type
In short: as §1

[13] = tested on: Panc1-G12D; assay: Viability assay (CellTiterBlue, 72 hr) Panc1; settings: Homo sapiens, PANC-1, GI50, CellTiterBlue, Panc1 K-Ras G12D, read-out: 72 hr Cell Viability Panc1 (G12D)
In short: as §1

[14] = tested on: U87-MG (K-Ras wild type cell line); assay: Viability assay (CellTiterBlue, 72 hr) U87-MG; settings: Homo sapiens, U-87 MG, GI50, CellTiterBlue, U87-MG K-Ras wild-type
In short: as §1

T1 sequence (P01116 whole entry G12D): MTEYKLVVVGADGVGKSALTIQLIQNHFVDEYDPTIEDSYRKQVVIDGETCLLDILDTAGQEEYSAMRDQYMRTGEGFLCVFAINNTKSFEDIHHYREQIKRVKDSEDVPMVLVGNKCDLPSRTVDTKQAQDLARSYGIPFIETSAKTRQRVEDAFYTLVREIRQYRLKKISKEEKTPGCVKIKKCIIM
T2 sequence (P01116 whole entry): as the sequence (P01116 whole entry G12D) above, with D12G counted along it

| Structure (SMILES) | IC50 [1] | EC50 [2] | EC50 [3] | EC50 [4] | EC50 [5] | IC50 [6] | EC50 [7] | IC50 [8] | IC50 [9] | EC50 [10] | IC50 [11] | IC50 [12] | IC50 [13] | IC50 [14] |
| --- | --- | --- | --- | --- | --- | --- | --- | --- | --- | --- | --- | --- | --- | --- |
| Cc1nc(C)c(C(=O)Nc2nc(-c3ccc4c(c3)CCC(=O)N4Cc3cccnc3)cs2)o1 [Compound 70, 2,4-dimethyl-N-(4-(2-oxo-1-(pyridin-3-ylmethyl)-1,2,3,4-tetrahydroquinolin-6-yl)thiazol-2-yl)oxazole-5-carboxamide] | > 25 µM | 19 µM | > 25 µM | 10 µM | 22 µM | 24 µM | 25 µM | 7 µM | 8.3 µM | 22 µM | > 25 µM | > 25 µM | 20 µM |  |
| Cn1cc(C(=O)Nc2nc(-c3ccc4c(c3)CCC(=O)N4)cs2)c(C(F)(F)F)n1 [Compound 30, 1-methyl-N-(4-(2-oxo-1,2,3,4-tetrahydroquinolin-6-yl)thiazol-2-yl)-3-(trifluoromethyl)-1H-pyrazole-4-carboxamide] | > 25 µM | > 25 µM |  | 8 µM | 16 µM | 18 µM |  | 23 µM | > 25 µM | > 25 µM |  | > 25 µM | > 25 µM | > 25 µM |
| Cc1nc(C2CCOC2O)sc1C(=O)Nc1nc(-c2ccc3c(c2)CCC(=O)N3Cc2cccnc2)cs1 (stereo not shown) [Compound 71, 2-(2-hydroxytetrahydrofuran-3-yl)-4-methyl-N-(4-(2-oxo-1-(pyridin-3-ylmethyl)-1,2,3,4-tetrahydroquinolin-6-yl)thiazol-2-yl)thiazole-5-carboxamide] | 9 µM | 27 µM | > 25 µM | 25 µM | 16 µM | 6 µM | 16 µM | 6 µM |  | 18 µM |  | 7 µM | 22 µM |  |
| CCn1cc(C(=O)Nc2nc(-c3ccc4c(c3)CCC(=O)N4)cs2)cn1 [Compound 34, 1-ethyl-N-(4-(2-oxo-1,2,3,4-tetrahydroquinolin-6-yl)thiazol-2-yl)-1H-pyrazole-4-carboxamide] | > 25 µM | > 25 µM |  | 15 µM | > 25 µM | 9 µM |  | 7 µM | 15.8 µM | > 25 µM |  | > 25 µM | > 25 µM | > 25 µM |
| Cc1nc(C)c(C(=O)Nc2nc(-c3ccc4c(c3)CCC(=O)N4CC3CCOC3)cs2)o1 (stereo not shown) [Compound 67, 2,4-dimethyl-N-(4-(2-oxo-1-((tetrahydrofuran-3-yl)methyl)-1,2,3,4-tetrahydroquinolin-6-yl)thiazol-2-yl)oxazole-5-carboxamide] | 2 µM | 10 µM | 23 µM | 3 µM | 4 µM | 2 µM | 6 µM | 2 µM | 8 µM |  | > 25 µM | 3 µM | 4 µM |  |
| CCc1nn(C)cc1C(=O)Nc1nc(-c2ccc3c(c2)CCC(=O)N3)cs1 [Compound 37, 3-ethyl-1-methyl-N-(4-(2-oxo-1,2,3,4-tetrahydroquinolin-6-yl)thiazol-2-yl)-1H-pyrazole-4-carboxamide] | > 25 µM | > 25 µM |  | > 25 µM | > 25 µM | > 25 µM |  | > 25 µM | > 25 µM | 26 µM |  | 7 µM | > 25 µM | 6 µM |
| CCn1nc(C)c(C(=O)Nc2nc(-c3ccc4c(c3)CCC(=O)N4)cs2)c1C [Compound 41, 1-ethyl-3,5-dimethyl-N-(4-(2-oxo-1,2,3,4-tetrahydroquinolin-6-yl)thiazol-2-yl)-1H-pyrazole-4-carboxamide] | > 25 µM | > 25 µM |  | 2 µM | 22 µM | 18 µM |  | 19 µM | 4.3 µM | 3 µM | 7.5 µM | 6 µM | 12 µM | 7 µM |
| Cc1nn(C)c(C)c1C(=O)Nc1nc(-c2ccc3c(c2)CCC(=O)N3)cs1 [Compound 40, 1,3,5-trimethyl-N-(4-(2-oxo-1,2,3,4-tetrahydroquinolin-6-yl)thiazol-2-yl)-1H-pyrazole-4-carboxamide] | > 25 µM | 25 µM |  | 8 µM | > 25 µM | > 25 µM |  | > 25 µM | 6.1 µM | 7 µM | 23.3 µM | 7 µM | 24 µM | 9 µM |
| Cn1ncc(C(=O)Nc2nc(-c3ccc4c(c3)CCC(=O)N4)cs2)c1C1CC1 [Compound 35, 5-cyclopropyl-1-methyl-N-(4-(2-oxo-1,2,3,4-tetrahydroquinolin-6-yl)thiazol-2-yl)-1H-pyrazole-4-carboxamide] | > 25 µM | > 25 µM |  | > 25 µM | 11 µM | 19 µM |  | > 25 µM | > 25 µM | > 25 µM |  | 7 µM | > 25 µM | 6 µM |
| CCn1ncc(C(=O)Nc2nc(-c3ccc4c(c3)CCC(=O)N4)cs2)c1C1CC1 [Compound 33, 5-cyclopropyl-1-ethyl-N-(4-(2-oxo-1,2,3,4-tetrahydroquinolin-6-yl)thiazol-2-yl)-1H-pyrazole-4-carboxamide] | > 25 µM | > 25 µM |  | > 25 µM | > 25 µM | > 25 µM |  | > 25 µM | > 25 µM | > 25 µM |  | > 25 µM | > 25 µM | > 25 µM |
| Cc1nn(C(C)C)cc1C(=O)Nc1nc(-c2ccc3c(c2)CCC(=O)N3)cs1 [Compound 36, 1-isopropyl-3-methyl-N-(4-(2-oxo-1,2,3,4-tetrahydroquinolin-6-yl)thiazol-2-yl)-1N-pyrazole-4-carboxamide] | > 25 µM | > 25 µM |  | 2 µM | 20 µM | 7 µM |  | 3 µM | 7 µM | 15 µM | 18.3 µM | > 25 µM | 14 µM | > 25 µM |
